Where two headings read alike, the source gives them in different places. One block for each compound: values may come before it.
Columns and labels:
Assay type in all cases: biochemical
mTOR = mTOR (Homo sapiens, UniProt P42345); test: mTOR enzyme assay (DELFIA format, His6-S6K substrate)
PI3Kγ = PI3Kγ (Homo sapiens, UniProt P48736); test: PI3K-gamma fluorescence polarization assay; details: read-out: PI3Kγ Median IC50
PI3Kα = PI3Kα (Homo sapiens, UniProt P42336); test: PI3K-alpha fluorescence polarization assay; details: read-out: PI3Kα Median IC50
Sequence of PI3Kα (P42336 whole entry, species assumed): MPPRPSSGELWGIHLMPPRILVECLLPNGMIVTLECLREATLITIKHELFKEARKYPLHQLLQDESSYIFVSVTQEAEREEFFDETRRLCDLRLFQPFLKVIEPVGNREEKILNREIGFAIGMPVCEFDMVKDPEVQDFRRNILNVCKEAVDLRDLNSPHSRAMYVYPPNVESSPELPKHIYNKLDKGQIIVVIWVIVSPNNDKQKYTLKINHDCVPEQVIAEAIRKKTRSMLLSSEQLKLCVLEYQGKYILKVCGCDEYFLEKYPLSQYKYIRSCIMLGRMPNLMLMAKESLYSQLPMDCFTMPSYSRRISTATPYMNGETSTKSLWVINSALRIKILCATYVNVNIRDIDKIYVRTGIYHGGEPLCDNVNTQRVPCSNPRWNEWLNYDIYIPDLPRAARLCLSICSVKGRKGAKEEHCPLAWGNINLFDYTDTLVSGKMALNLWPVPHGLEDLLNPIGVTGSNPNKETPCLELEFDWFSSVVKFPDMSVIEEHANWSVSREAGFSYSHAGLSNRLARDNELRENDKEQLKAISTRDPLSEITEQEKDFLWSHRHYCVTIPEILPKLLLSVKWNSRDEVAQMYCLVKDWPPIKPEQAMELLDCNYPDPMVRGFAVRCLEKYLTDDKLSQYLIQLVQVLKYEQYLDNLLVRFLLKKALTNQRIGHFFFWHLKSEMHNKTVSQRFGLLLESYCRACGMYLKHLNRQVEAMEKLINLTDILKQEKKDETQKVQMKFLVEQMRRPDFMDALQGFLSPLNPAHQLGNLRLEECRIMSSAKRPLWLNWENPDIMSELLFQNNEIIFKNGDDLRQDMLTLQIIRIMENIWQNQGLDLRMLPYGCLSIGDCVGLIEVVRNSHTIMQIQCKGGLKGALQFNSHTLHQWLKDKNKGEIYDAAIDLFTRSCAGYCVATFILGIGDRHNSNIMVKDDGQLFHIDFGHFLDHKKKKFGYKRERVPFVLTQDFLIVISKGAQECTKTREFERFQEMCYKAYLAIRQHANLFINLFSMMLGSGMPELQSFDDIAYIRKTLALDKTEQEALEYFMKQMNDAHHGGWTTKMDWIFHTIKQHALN
Sequence of PI3Kα (P27986 whole entry partner, species assumed): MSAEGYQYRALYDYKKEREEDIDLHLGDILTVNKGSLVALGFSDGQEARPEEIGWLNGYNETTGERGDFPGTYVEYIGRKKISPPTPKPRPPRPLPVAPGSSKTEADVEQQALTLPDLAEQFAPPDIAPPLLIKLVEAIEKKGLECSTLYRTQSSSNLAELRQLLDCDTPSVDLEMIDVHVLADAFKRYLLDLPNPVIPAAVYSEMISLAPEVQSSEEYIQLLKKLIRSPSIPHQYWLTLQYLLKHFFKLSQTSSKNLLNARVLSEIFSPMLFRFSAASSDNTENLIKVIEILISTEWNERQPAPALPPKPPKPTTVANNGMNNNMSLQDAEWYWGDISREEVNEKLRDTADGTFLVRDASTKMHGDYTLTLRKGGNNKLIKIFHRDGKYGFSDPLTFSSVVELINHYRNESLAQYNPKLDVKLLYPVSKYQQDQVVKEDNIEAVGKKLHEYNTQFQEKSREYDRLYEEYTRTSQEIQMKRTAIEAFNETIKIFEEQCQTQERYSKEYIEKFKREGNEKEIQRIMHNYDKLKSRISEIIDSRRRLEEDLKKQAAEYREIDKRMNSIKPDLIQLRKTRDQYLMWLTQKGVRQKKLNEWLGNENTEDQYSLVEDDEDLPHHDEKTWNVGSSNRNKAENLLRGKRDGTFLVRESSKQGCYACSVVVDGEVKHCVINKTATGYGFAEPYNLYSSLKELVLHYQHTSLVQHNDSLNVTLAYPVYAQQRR

[1] = read-out: mTOR Kinase Median IC50

Sequence of PI3Kγ (P48736 whole entry, species assumed): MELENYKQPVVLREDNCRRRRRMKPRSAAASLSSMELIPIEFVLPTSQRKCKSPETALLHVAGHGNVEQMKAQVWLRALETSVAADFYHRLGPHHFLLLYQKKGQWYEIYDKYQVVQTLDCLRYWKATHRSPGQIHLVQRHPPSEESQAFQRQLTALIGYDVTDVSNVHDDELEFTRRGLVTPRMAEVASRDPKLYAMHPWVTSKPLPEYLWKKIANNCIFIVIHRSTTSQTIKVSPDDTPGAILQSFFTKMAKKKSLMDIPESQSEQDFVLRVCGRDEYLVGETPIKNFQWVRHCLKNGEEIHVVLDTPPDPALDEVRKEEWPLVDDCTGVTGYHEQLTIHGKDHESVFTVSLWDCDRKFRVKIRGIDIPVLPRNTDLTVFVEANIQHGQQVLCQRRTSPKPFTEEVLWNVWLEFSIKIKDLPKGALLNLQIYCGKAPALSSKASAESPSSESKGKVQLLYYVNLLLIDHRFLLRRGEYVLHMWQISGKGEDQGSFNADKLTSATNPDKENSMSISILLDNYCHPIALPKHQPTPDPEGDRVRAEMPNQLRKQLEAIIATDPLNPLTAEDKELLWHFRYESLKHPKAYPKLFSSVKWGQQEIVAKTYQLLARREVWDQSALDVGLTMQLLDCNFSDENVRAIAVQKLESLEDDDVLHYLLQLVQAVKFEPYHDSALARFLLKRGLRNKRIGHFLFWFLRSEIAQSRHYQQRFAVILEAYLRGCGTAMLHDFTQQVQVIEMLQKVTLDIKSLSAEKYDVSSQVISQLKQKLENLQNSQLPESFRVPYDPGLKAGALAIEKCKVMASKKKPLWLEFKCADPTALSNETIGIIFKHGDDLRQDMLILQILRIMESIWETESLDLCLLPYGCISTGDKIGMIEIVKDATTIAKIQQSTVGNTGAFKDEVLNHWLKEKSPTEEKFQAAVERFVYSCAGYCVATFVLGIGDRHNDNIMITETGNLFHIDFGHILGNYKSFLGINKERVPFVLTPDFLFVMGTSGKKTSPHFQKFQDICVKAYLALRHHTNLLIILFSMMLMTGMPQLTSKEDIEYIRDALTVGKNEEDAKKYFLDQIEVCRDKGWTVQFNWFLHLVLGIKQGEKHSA

IC50 (mTOR; [1]): 0.0115 µM | IC50 (PI3Kγ): > 10 µM | IC50 (PI3Kα): > 10 µM
Compound: CN(C(=O)C1CCN(c2ccnc3c2c(C=C2Oc4ccc(NC(=O)Nc5cccnc5)cc4C2=O)cn3C)CC1)C1CCS(=O)(=O)C1 (stereo not drawn) [Compound 211, N-(1,1-dioxidotetrahydrothiophen-3-yl)-N-methyl-1-[1-methyl-3-({3-oxo-5-[(pyridin-3-ylcarbamoyl)amino]-1-benzofuran-2(3H)-ylidene}methyl)-1H-pyrrolo[2,3-b]pyridin-4-yl]piperidine-4-carboxamide]

IC50 (mTOR; [1]): 0.0057 µM | IC50 (PI3Kγ): 5.23 µM | IC50 (PI3Kα): 7.45 µM
Compound: Cn1cc(C=C2Oc3ccc(NC(=O)Nc4cccnc4)cc3C2=O)c2c(N3CCC(C(=O)NC4CCS(=O)(=O)C4)CC3)ccnc21 (stereo not drawn) [Compound 212, N-(1,1-dioxidotetrahydrothiophen-3-yl)-1-[1-methyl-3-({3-oxo-5-[(pyridin-3-ylcarbamoyl)amino]-1-benzofuran-2(3H)-ylidene}methyl)-1H-pyrrolo[2,3-b]pyridin-4-yl]piperidine-4-carboxamide]

IC50 (mTOR; [1]): 0.0189 µM | IC50 (PI3Kγ): 7.22 µM | IC50 (PI3Kα): 8.36 µM
Compound: CN(C(=O)C1CCN(c2ccnc3c2c(C=C2Oc4ccc(NC(=O)Nc5cccnc5)cc4C2=O)cn3C)CC1)C1CCOCC1 [Compound 213, N-methyl-1-[1-methyl-3-({3-oxo-5-[(pyridin-3-ylcarbamoyl)amino]-1-benzofuran-2(3H)-ylidene}methyl)-1H-pyrrolo[2,3-b]pyridin-4-yl]-N-(tetrahydro-2H-pyran-4-yl)piperidine-4-carboxamide]

IC50 (mTOR; [1]): 0.0102 µM | IC50 (PI3Kγ): > 10 µM | IC50 (PI3Kα): > 10 µM
Compound: Cn1cc(C=C2Oc3ccc(NC(=O)Nc4cccnc4)cc3C2=O)c2c(N3CCC(C(=O)NC4CCOCC4)CC3)ccnc21 [Compound 214, 1-[1-methyl-3-({3-oxo-5-[(pyridin-3-ylcarbamoyl)amino]-1-benzofuran-2(3H)-ylidene}methyl)-1H-pyrrolo[2,3-b]pyridin-4-yl]-N-(tetrahydro-2H-pyran-4-yl)piperidine-4-carboxamide]

IC50 (mTOR; [1]): 0.102 µM | IC50 (PI3Kγ): 9.28 µM | IC50 (PI3Kα): > 10 µM
Compound: CN(Cc1ccccc1)C(=O)C1CCN(c2ccnc3c2c(C=C2Oc4ccc(NC(=O)Nc5cccnc5)cc4C2=O)cn3C)CC1 [Compound 215, N-benzyl-N-methyl-1-[1-methyl-3-({3-oxo-5-[(pyridin-3-ylcarbamoyl)amino]-1-benzofuran-2(3H)-ylidene}methyl)-1H-pyrrolo[2,3-b]pyridin-4-yl]piperidine-4-carboxamide]

IC50 (mTOR; [1]): 0.097 µM | IC50 (PI3Kγ): > 10 µM | IC50 (PI3Kα): 4.01 µM
Compound: CN(C)C(=O)C1CCN(c2ccnc3c2c(/C=C2\Oc4ccc(NC(=O)Nc5ccc(N6CCOCC6)nc5)cc4C2=O)cn3C)CC1 [Compound 217, N,N-dimethyl-1-(1-methyl-3-{(Z)-[5-{[(6-morpholin-4-ylpyridin-3-yl)carbamoyl]amino}-3-oxo-1-benzofuran-2(3H)-ylidene]methyl}-1H-pyrrolo[2,3-b]pyridin-4-yl)piperidine-4-carboxamide]

IC50 (mTOR; [1]): 0.0225 µM | IC50 (PI3Kγ): 1.14 µM | IC50 (PI3Kα): 0.921 µM
Compound: C#CCN(C)C(=O)C1CCN(c2ccnc3c2c(/C=C2\Oc4ccc(NC(=O)Nc5cccnc5)cc4C2=O)cn3C)CC1 [Compound 226, N-methyl-1-{1-methyl-3-[(Z)-{3-oxo-5-[(pyridin-3-ylcarbamoyl)amino]-1-benzofuran-2(3H)-ylidene}methyl]-1H-pyrrolo[2,3-b]pyridin-4-yl}-N-prop-2-yn-1-ylpiperidine-4-carboxamide]

IC50 (mTOR; [1]): 0.165 µM | IC50 (PI3Kγ): 1.11 µM | IC50 (PI3Kα): 2.72 µM
Compound: CN(C(=O)C1CCN(c2ccnc3c2c(/C=C2\Oc4ccc(NC(=O)Nc5cccnc5)cc4C2=O)cn3C)CC1)C1CCCC1 [Compound 227, N-cyclopentyl-N-methyl-1-{1-methyl-3-[(Z)-{3-oxo-5-[(pyridin-3-ylcarbamoyl)amino]-1-benzofuran-2(3H)-ylidene}methyl]-1H-pyrrolo[2,3-b]pyridin-4-yl}piperidine-4-carboxamide]

Continued, compound first:

Compound: CN(C)C(=O)C1CCN(c2ccnc3c2c(/C=C2\Oc4ccc(NC(=O)Nc5ccc(CN6CCCCC6)cc5)cc4C2=O)cn3C)CC1 [Compound 216, N,N-dimethyl-1-(1-methyl-3-{(Z)-[3-oxo-5-({[4-(piperidin-1-ylmethyl)phenyl]carbamoyl}amino)-1-benzofuran-2(3H)-ylidene]methyl}-1H-pyrrolo[2,3-b]pyridin-4-yl)piperidine-4-carboxamide]
IC50 (mTOR; [1]): 0.03 µM | IC50 (PI3Kγ): 0.231 µM | IC50 (PI3Kα): 0.613 µM

Compound: CN1CCN(c2ccc(NC(=O)Nc3ccc4c(c3)C(=O)/C(=C/c3cn(C)c5nccc(N6CCC(C(=O)N(C)C)CC6)c35)O4)cc2)CC1 [Compound 218, N,N-dimethyl-1-(1-methyl-3-{(Z)-[5-({[4-(4-methylpiperazin-1-yl)phenyl]carbamoyl}amino)-3-oxo-1-benzofuran-2(3H)-ylidene]methyl}-1H-pyrrolo[2,3-b]pyridin-4-yl)piperidine-4-carboxamide]
IC50 (mTOR; [1]): 0.445 µM | IC50 (PI3Kγ): > 10 µM | IC50 (PI3Kα): 0.994 µM

Compound: Cn1cc(/C=C2\Oc3ccc(NC(=O)Nc4ccc(N5CCOCC5)nc4)cc3C2=O)c2c(N3CC4CCC(C3)O4)ccnc21 [Compound 219, 1-[(2Z)-2-{[1-methyl-4-(8-oxa-3-azabicyclo[3.2.1]oct-3-yl)-1H-pyrrolo[2,3-b]pyridin-3-yl]methylidene}-3-oxo-2,3-dihydro-1-benzofuran-5-yl]-3-(6-morpholin-4-ylpyridin-3-yl)urea]
IC50 (mTOR; [1]): 0.029 µM | IC50 (PI3Kγ): > 10 µM | IC50 (PI3Kα): 2.22 µM

Compound: CN(C)CCOc1ccc(NC(=O)Nc2ccc3c(c2)C(=O)/C(=C/c2cn(C)c4nccc(N5CC6CCC(C5)O6)c24)O3)cc1 [Compound 220, 1-{4-[2-(dimethylamino)ethoxy]phenyl}-3-[(2Z)-2-{[1-methyl-4-(8-oxa-3-azabicyclo[3.2.1]oct-3-yl)-1H-pyrrolo[2,3-b]pyridin-3-yl]methylidene}-3-oxo-2,3-dihydro-1-benzofuran-5-yl]urea]
IC50 (mTOR; [1]): 0.0625 µM | IC50 (PI3Kγ): > 10 µM | IC50 (PI3Kα): 0.915 µM

Compound: CN1CCN(NC(=O)Nc2ccc3c(c2)C(=O)/C(=C/c2cn(C)c4nccc(N5CC6CCC(C5)O6)c24)O3)CC1 [Compound 221, 1-[(2Z)-2-{[1-methyl-4-(8-oxa-3-azabicyclo[3.2.1]oct-3-yl)-1H-pyrrolo[2,3-b]pyridin-3-yl]methylidene}-3-oxo-2,3-dihydro-1-benzofuran-5-yl]-3-(4-methylpiperazin-1-yl)urea]
IC50 (mTOR; [1]): 0.175 µM | IC50 (PI3Kγ): 1.01 µM | IC50 (PI3Kα): 0.221 µM

Compound: Cc1cnccc1CN(C)C(=O)C1CCN(c2ccnc3c2c(/C=C2\Oc4ccc(NC(=O)Nc5cccnc5)cc4C2=O)cn3C)CC1 [Compound 222, N-methyl-1-{1-methyl-3-[(Z)-{3-oxo-5-[(pyridin-3-ylcarbamoyl)amino]-1-benzofuran-2(3H)-ylidene}methyl]-1H-pyrrolo[2,3-b]pyridin-4-yl}-N-[(3-methylpyridin-4-yl)methyl]piperidine-4-carboxamide]
IC50 (mTOR; [1]): 0.034 µM | IC50 (PI3Kγ): 2.54 µM | IC50 (PI3Kα): 2.83 µM

Compound: Cc1cc(CN(C)C(=O)C2CCN(c3ccnc4c3c(/C=C3\Oc5ccc(NC(=O)Nc6cccnc6)cc5C3=O)cn4C)CC2)ccn1 [Compound 223, N-methyl-1-{1-methyl-3-[(Z)-{3-oxo-5-[(pyridin-3-ylcarbamoyl)amino]-1-benzofuran-2(3H)-ylidene}methyl]-1H-pyrrolo[2,3-b]pyridin-4-yl}-N-[(2-methylpyridin-4-yl)methyl]piperidine-4-carboxamide]
IC50 (mTOR; [1]): 0.023 µM | IC50 (PI3Kγ): 1.27 µM | IC50 (PI3Kα): 1.85 µM

Compound: COc1ccnc(CN(C)C(=O)C2CCN(c3ccnc4c3c(/C=C3\Oc5ccc(NC(=O)Nc6cccnc6)cc5C3=O)cn4C)CC2)c1 [Compound 224, N-[(4-methoxypyridin-2-yl)methyl]-N-methyl-1-{1-methyl-3-[(Z)-{3-oxo-5-[(pyridin-3-ylcarbamoyl)amino]-1-benzofuran-2(3H)-ylidene}methyl]-1H-pyrrolo[2,3-b]pyridin-4-yl}piperidine-4-carboxamide]
IC50 (mTOR; [1]): 0.0235 µM | IC50 (PI3Kγ): 1.42 µM | IC50 (PI3Kα): 2.37 µM

Compound: Cc1cccc(CN(C)C(=O)C2CCN(c3ccnc4c3c(/C=C3\Oc5ccc(NC(=O)Nc6cccnc6)cc5C3=O)cn4C)CC2)n1 [Compound 225, N-methyl-1-{1-methyl-3-[(Z)-{3-oxo-5-[(pyridin-3-ylcarbamoyl)amino]-1-benzofuran-2(3H)-ylidene}methyl]-1H-pyrrolo[2,3-b]pyridin-4-yl}-N-[(6-methylpyridin-2-yl)methyl]piperidine-4-carboxamide]
IC50 (mTOR): 0.049 µM | IC50 (PI3Kγ): 1.92 µM | IC50 (PI3Kα): 2.32 µM

Compound: CN1CCN(NC(=O)Nc2ccc3c(c2)C(=O)/C(=C/c2cn(C)c4nccc(N5CCC(C(=O)N(C)C)CC5)c24)O3)CC1 [Compound 228, N,N-dimethyl-1-(1-methyl-3-{(Z)-[5-{[(4-methylpiperazin-1-yl)carbamoyl]amino}-3-oxo-1-benzofuran-2(3H)-ylidene]methyl}-1H-pyrrolo[2,3-b]pyridin-4-yl)piperidine-4-carboxamide]
IC50 (mTOR; [1]): 0.17 µM | IC50 (PI3Kγ): 2.75 µM | IC50 (PI3Kα): 0.415 µM

Compound: CN1CCN(c2ccc(NC(=O)Nc3ccc4c(c3)C(=O)/C(=C/c3cn(C)c5nccc(N6CC7CCC(C6)O7)c35)O4)cc2)CC1 [Compound 229, 1-[(2Z)-2-{[1-methyl-4-(8-oxa-3-azabicyclo[3.2.1]oct-3-yl)-1H-pyrrolo[2,3-b]pyridin-3-yl]methylidene}-3-oxo-2,3-dihydro-1-benzofuran-5-yl]-3-[4-(4-methylpiperazin-1-yl)phenyl]urea]
IC50 (mTOR; [1]): 0.28 µM | IC50 (PI3Kγ): 6.67 µM | IC50 (PI3Kα): 2.3 µM

Compound: CN1CCN(c2ccc(NC(=O)Nc3ccc4c(c3)C(=O)/C(=C/c3cn(C)c5nccc(N6CCC(C(=O)N(C)C)CC6)c35)O4)cn2)CC1 [Compound 230, N,N-dimethyl-1-(1-methyl-3-{(Z)-[5-({[6-(4-methylpiperazin-1-yl)pyridin-3-yl]carbamoyl}amino)-3-oxo-1-benzofuran-2(3H)-ylidene]methyl}-1H-pyrrolo[2,3-b]pyridin-4-yl)piperidine-4-carboxamide]
IC50 (mTOR; [1]): 0.074 µM | IC50 (PI3Kγ): > 10 µM | IC50 (PI3Kα): 10.9 µM

— patent US20090298820A1, “3-SUBSTITUTED-1H-PYRROLO[2,3-B]PYRIDINE AND 3-SUBSTITUTED-1H-PYRROLO[3,2-B]PYRIDINE COMPOUNDS, THEIR USE AS MTOR KINASE AND PI3 KINASE INHIBITORS, AND THEIR SYNTHESES” (Wyeth, priority 2008, published 2009)
